{"source": "patent US20200157145A1", "about": "“NEUTRAL-CATIONIC PEPTOIDS AND USES THEREOF” (Stealth BioTherapeutics Corp, priority 2018, published 2020)", "test_system": "isolated guinea pig heart exposed to global ischemia", "assay": "Cardiac ischemia-reperfusion injury in isolated perfused guinea pig heart (global no-flow ischemia 20 min, reperfusion 120 min)", "method": "Procedures for the use of guinea pigs are in accordance with the guidelines established by the American Physiological Society. Adult male guinea pigs (200-300 g) will be anesthetized with a ketamine/xylazine cocktail (85/15 mg mL, respectively; ip delivery). Upon the absence of reflexes to ensure a deep plane of anesthesia, hearts will be excised via midline thoracotomy and immersed in ice-cold saline. Hearts will be cannulated by the aorta and perfused with a modified Krebs-Henseleit buffer containing (in mM): 118 NaCl, 24 NaHCO3, 4.75 KCl, 1.2 KH2PO4, 1.2 MgSO4, 2.0 CaCl2, and 10 glucose (gassed with 95/5% O2/CO2). Hearts will be placed in a buffer-filled perfusion chamber and maintained at 37° C. for the duration of the experiments.\nFollowing the initiation of perfusion, hearts will be instrumented for the simultaneous observation of mechanical and electrical function. A buffer-filled latex balloon will be inserted into the left ventricle (via the mitral valve) for the measurement of left ventricular developed pressure, with balloon volume adjusted to establish an end-diastolic pressure of 5-8 mmHg. Three electrodes will be placed into the buffer-filled perfusion chamber for the measurement of volume-conducted ECG. A pre-established protocol of electrode placement will be utilized to obtain a signal analogous to Lead II of a typical 12-lead ECG. All physiological parameters will be continuously monitored and stored on a personal computer using commercially available software (Chart, AD Instruments).\nAfter a 10-minute equilibration period, hearts will be divided into the following different treatment groups: 1. Control followed by I/R; 2. Administration of 1 nM ηArg-η2′6′-Dmt-ηLys-ηPhe-NH2 in the perfusate both before and after index ischemia; 3. Post-ischemic administration of 1 nM ηArg-η2′6′-Dmt-ηLys-ηPhe-NH2 using both a bolus dose (also 1 nM, administered immediately prior to reperfusion) and ηArg-η2′6′-Dmt-ηLys-ηPhe-NH2 in the reperfusion solution; 4. Positive control using ischemic preconditioning; 3 cycles of 5 min I/R before index ischemia).\nHearts will be exposed to global no-flow ischemia by stopping perfusion for 20 minutes. At the end of the index ischemia, static buffer from the perfusion lines will be washed out (via an accessory port proximal to the aortic cannula) and reperfusion ensued for 120 minutes. Administration of all compounds in the perfusate will be accomplished via dissolving the compound(s) in solution prior to administration. The reperfusion bolus dose will be delivered to the heart via syringe through a drug-delivery port just above the aortic cannula. At the end of the 2 h reperfusion protocol, the LV will be dissected, sliced into 5 mm-thick slices, incubated in triphenyltetrazolium chloride (TTC) for 10 minutes (37° C.), and digitally photographed for subsequent infarct size analysis. Infarct sizes are expressed as the infarcted area as a percentage of the LV (in the global ischemia model, the entire LV constitutes the zone-at-risk).", "key": {"[1]": {"conditions": "peptoid 0.01 nM, 0.1 nM, cyclosporin-A 0.2 μM"}}, "data": [{"substance": "ηArg-η2′6′-Dmt-ηLys-ηPhe-NH2", "values": [{"measurement": "Incidence of VT/VF (ventricular tachycardia and/or fibrillation)", "setting": "0.01 nM/0.1 nM(30 min R)", "value": "protection against the incidence of VT/VF"}, {"measurement": "Infarct size (infarcted area as a percentage of the LV)", "setting": "1 nM or 0.1 nM or 0.001 nM or 0.01 nM/0.1 nM(30 min R), 20 min global ischemia, compared to control group", "value": "lower incidence of infarction (infarction size)"}, {"measurement": "Baseline coronary flow rates", "setting": "groups receiving 0.01 nM", "value": "slightly lower than other groups"}, {"measurement": "Baseline heart rate", "setting": "[1]", "value": "no discernable effects"}, {"measurement": "Baseline left ventricular developed pressure", "setting": "[1]", "value": "no discernable effects"}, {"measurement": "Baseline rates of contraction/relaxation", "setting": "[1]", "value": "no discernable effects"}, {"measurement": "Coronary flow rates", "setting": "peptoid 1 nM, 0.1 nM, 0.01 nM to 0.1 nM, cyclosporin-A 0.2 uM, whole time or at reperfusion, vs control", "value": "no differences in coronary flow rates"}]}]}
